Experimental data published in ChEMBL document CHEMBL1201862, “PubChem BioAssay data set” (2004).
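The compound was tested at five concentrations on cells cultured in 96-well plates, with a 48-hour exposure period. GI50: concentration for 50% inhibition of growth.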 Active and inactive are the calls of the source. Cut-off read from the data, not from the text of the source: active = GI50 up to about 1.1 µM and inactive = higher.

What was measured:
Test in all cases: growth of human tumour cells (NCI), 48 h
A498 = system: A498
EKVX = system: EKVX
HCC 2998 = system: HCC 2998
Hs-578T = system: Hs-578T
IGROV-1 = system: IGROV-1
M14 = system: M14
MDA-N = system: MDA-N
NCI-H23 = system: NCI-H23
NCI-H522 = system: NCI-H522
OVCAR-3 = system: OVCAR-3
OVCAR-8 = system: OVCAR-8
PC-3 = system: PC-3
RPMI-8226 = system: RPMI-8226
SF-268 = system: SF-268
SF-295 = system: SF-295
SN12C = system: SN12C
SW-620 = system: SW-620
T47D = system: T47D
TK-10 = system: TK-10
U-251 = system: U-251

SMILES	GI50 (A498)	GI50 (EKVX)	GI50 (HCC 2998)	GI50 (Hs-578T)	GI50 (IGROV-1)	GI50 (M14)	GI50 (MDA-N)	GI50 (NCI-H23)	GI50 (NCI-H522)	GI50 (OVCAR-3)	GI50 (OVCAR-8)	GI50 (PC-3)	GI50 (RPMI-8226)	GI50 (SF-268)	GI50 (SF-295)	GI50 (SN12C)	GI50 (SW-620)	GI50 (T47D)	GI50 (TK-10)	GI50 (U-251)
CC(=O)Nc1nnc(S(=O)(=O)NC(=S)Nc2ccc(Cl)cc2)s1	> 100 µM (inactive)	> 100 µM (inactive)	> 100 µM (inactive)	> 100 µM (inactive)	> 100 µM (inactive)	> 100 µM (inactive)	> 100 µM (inactive)	> 100 µM (inactive)	> 100 µM (inactive)	> 100 µM (inactive)	> 100 µM (inactive)	> 100 µM (inactive)	> 100 µM (inactive)	> 100 µM (inactive)	> 100 µM (inactive)	> 100 µM (inactive)	> 100 µM (inactive)	> 100 µM (inactive)	> 100 µM (inactive)	> 100 µM (inactive)
C=CCC1CC(n2cc(C)c(=O)[nH]c2=O)OC1CO[Si](C)(C)C(C)(C)C (stereo not given)	19.1 µM (inactive)	7.52 µM (inactive)	17.9 µM (inactive)	12.6 µM (inactive)	11.2 µM (inactive)	18.6 µM (inactive)	14 µM (inactive)	12.5 µM (inactive)	10.4 µM (inactive)	15.9 µM (inactive)	15.1 µM (inactive)	11.4 µM (inactive)	11.9 µM (inactive)	15.6 µM (inactive)	17.6 µM (inactive)	15 µM (inactive)	16.1 µM (inactive)	10.4 µM (inactive)	15.8 µM (inactive)	13.6 µM (inactive)
CCOC(=O)C(NS(=O)(=O)c1ccccc1)(C(F)(F)F)P(=O)(OCC(C)C)OCC(C)C (stereo not given)	> 100 µM (inactive)	> 100 µM (inactive)	> 100 µM (inactive)	> 100 µM (inactive)	> 100 µM (inactive)	> 100 µM (inactive)	> 100 µM (inactive)	> 100 µM (inactive)	> 100 µM (inactive)	> 100 µM (inactive)	> 100 µM (inactive)	> 100 µM (inactive)	> 100 µM (inactive)	> 100 µM (inactive)	> 100 µM (inactive)	> 100 µM (inactive)	> 100 µM (inactive)	> 100 µM (inactive)	> 100 µM (inactive)	> 100 µM (inactive)
CC(=O)[C@@]1(O)CC[C@H]2[C@@H]3C[C@H](C)C4=CC(=O)C=C[C@]4(C)[C@@]3(F)[C@@H](O)C[C@@]21C [FLUOROMETHOLONE]	> 100 µM (inactive)	> 67.5 µM (inactive)	> 100 µM (inactive)	> 100 µM (inactive)	> 100 µM (inactive)	> 100 µM (inactive)	> 100 µM (inactive)	> 100 µM (inactive)	> 93.3 µM (inactive)	> 100 µM (inactive)	> 69.7 µM (inactive)	> 59.3 µM (inactive)	> 14.6 µM (inactive)	> 95.1 µM (inactive)	> 100 µM (inactive)	> 100 µM (inactive)	> 100 µM (inactive)	> 69.8 µM (inactive)	> 100 µM (inactive)	> 100 µM (inactive)
CN1N=C(c2ccncc2)OC1c1ccc(Cl)c(Cl)c1 (stereo not given)	82 µM (inactive)	> 100 µM (inactive)	> 100 µM (inactive)	> 100 µM (inactive)	> 100 µM (inactive)	> 100 µM (inactive)	> 100 µM (inactive)	> 100 µM (inactive)	> 100 µM (inactive)	72.4 µM (inactive)	> 100 µM (inactive)	> 100 µM (inactive)	> 100 µM (inactive)	> 100 µM (inactive)	> 100 µM (inactive)	> 100 µM (inactive)	> 100 µM (inactive)	> 100 µM (inactive)	> 100 µM (inactive)	> 100 µM (inactive)
Cc1cc(C)c(P2C(=C(O[Si](C(C)C)(C(C)C)C(C)C)C(C)(C)C)C2(c2ccccc2)c2ccccc2)c(C)c1 (stereo not given)	> 100 µM (inactive)	> 100 µM (inactive)	> 100 µM (inactive)	> 100 µM (inactive)	> 100 µM (inactive)	> 100 µM (inactive)	> 100 µM (inactive)	> 100 µM (inactive)	62.1 µM (inactive)	> 100 µM (inactive)	> 100 µM (inactive)	57.9 µM (inactive)	62.8 µM (inactive)	> 100 µM (inactive)	> 100 µM (inactive)	> 100 µM (inactive)	> 100 µM (inactive)	> 100 µM (inactive)	> 100 µM (inactive)	> 100 µM (inactive)
CN(C)/C=N/n1c2ccccc2c2ccccc21	26.4 µM (inactive)	> 100 µM (inactive)	> 100 µM (inactive)	34 µM (inactive)	> 100 µM (inactive)	> 100 µM (inactive)	> 100 µM (inactive)	> 100 µM (inactive)	> 100 µM (inactive)	> 100 µM (inactive)	> 100 µM (inactive)	> 100 µM (inactive)	> 100 µM (inactive)	> 100 µM (inactive)	> 100 µM (inactive)	> 100 µM (inactive)	> 100 µM (inactive)	> 100 µM (inactive)	> 100 µM (inactive)	> 100 µM (inactive)
C=C1C(=O)O[C@@H]2/C=C(\C)CC/C=C(\C)CC[C@@]12O	9.12 µM (inactive)	4.13 µM (inactive)	5.31 µM (inactive)	8.79 µM (inactive)	3.52 µM (inactive)	3.7 µM (inactive)	2.25 µM (inactive)	1.67 µM (inactive)	0.371 µM (active)	2.4 µM (inactive)	1.91 µM (inactive)	4.28 µM (inactive)	0.948 µM (active)	5.37 µM (inactive)	10.9 µM (inactive)	2.44 µM (inactive)	1.04 µM (active)	1.41 µM (inactive)	1.73 µM (inactive)	7.36 µM (inactive)
COC1(OC)CCN(Cc2ccccc2)C1=O	17.5 µM (inactive)	16 µM (inactive)	18.2 µM (inactive)	> 100 µM (inactive)	13.9 µM (inactive)	10.4 µM (inactive)	10.7 µM (inactive)	20 µM (inactive)	> 100 µM (inactive)	11.4 µM (inactive)	6.44 µM (inactive)	13.2 µM (inactive)	6.32 µM (inactive)	> 38.1 µM (inactive)	23.4 µM (inactive)	10.4 µM (inactive)	2.86 µM (inactive)	4.45 µM (inactive)	16 µM (inactive)	17.3 µM (inactive)
O=C1Cc2c(-c3ccccc3)cc(-c3ccc(Cl)cc3)nc2-c2ccccc2N1	1.75 µM (inactive)	6.92 µM (inactive)	6.07 µM (inactive)	2.88 µM (inactive)	4.62 µM (inactive)	9.95 µM (inactive)	6.9 µM (inactive)	4.03 µM (inactive)	2.18 µM (inactive)	8.73 µM (inactive)	2.37 µM (inactive)	10.1 µM (inactive)	8.47 µM (inactive)	4.85 µM (inactive)	5.89 µM (inactive)	3.33 µM (inactive)	6.7 µM (inactive)	3.23 µM (inactive)	3.41 µM (inactive)	1.72 µM (inactive)
COc1ccc2c(c1)c1c(n2CCN2CCCCC2)-c2cccc(OC)c2CC1	20.1 µM (inactive)	19.6 µM (inactive)	15.5 µM (inactive)	19.5 µM (inactive)	13.4 µM (inactive)	12 µM (inactive)	16.2 µM (inactive)	14.8 µM (inactive)	3.82 µM (inactive)	17.2 µM (inactive)	16.9 µM (inactive)	12.7 µM (inactive)	11.5 µM (inactive)	19.7 µM (inactive)	30.5 µM (inactive)	14.9 µM (inactive)	16.7 µM (inactive)	16.3 µM (inactive)	15 µM (inactive)	13.1 µM (inactive)
C/C(=N\NC(=[Se])N(C)C)c1ccccn1	0.4 µM (active)	0.0703 µM (active)	0.459 µM (active)	0.208 µM (active)	< 0.01 µM (active)	0.0158 µM (active)	1.89 µM (inactive)	< 0.01 µM (active)	0.0497 µM (active)	0.106 µM (active)	< 0.01 µM (active)	< 0.01 µM (active)	< 0.01 µM (active)	0.216 µM (active)	< 0.01 µM (active)	0.0143 µM (active)	< 0.01 µM (active)	0.0364 µM (active)	1.87 µM (inactive)	< 0.01 µM (active)
C=C(C)C(=O)OC1C[C@H](COC(C)=O)C2CC=C(C)C2C2OC(=O)C(=C)[C@H]12 (stereo not given in full)	14.3 µM (inactive)	9.82 µM (inactive)	12.2 µM (inactive)	4.06 µM (inactive)	11.7 µM (inactive)	2.07 µM (inactive)	3.66 µM (inactive)	4.26 µM (inactive)	1.45 µM (inactive)	2.19 µM (inactive)	5.31 µM (inactive)	7.24 µM (inactive)	0.525 µM (active)	2.4 µM (inactive)	17.1 µM (inactive)	4.97 µM (inactive)	2.23 µM (inactive)	4.98 µM (inactive)	6.76 µM (inactive)	8.67 µM (inactive)
O=C1Sc2ccc(Br)cc2C(=O)Sc2ccccc21	20.9 µM (inactive)	8.02 µM (inactive)	14.5 µM (inactive)	11.4 µM (inactive)	14.2 µM (inactive)	11.4 µM (inactive)	8.17 µM (inactive)	15.7 µM (inactive)	4.84 µM (inactive)	12.5 µM (inactive)	9.84 µM (inactive)	13 µM (inactive)	3.33 µM (inactive)	7.08 µM (inactive)	22.4 µM (inactive)	14.5 µM (inactive)	17.9 µM (inactive)	9.29 µM (inactive)	17.9 µM (inactive)	14.5 µM (inactive)
